Data as given in US12162918B2, “Periostin compounds for the treatment of haematological complications” (Chemotherapeutisches Forschungsinstitut Georg-Speyer-Haus, priority 2018, dated 2024).

Experiments:
Lin− cells = experiment: Plating of warfarin-exposed Lin− cells on untreated versus warfarin-treated stroma, with or without MK-2206; format: cell-based, mice
[1] = system: Lin− hematopoietic cells on stroma cells; experiment: Cobblestone-formation and coculture assay of Lin− cells on stroma cells; format: cell-based, mice
Procedure: In the co-culture and cobblestone assays 20,000 Lin− cells were plated on stroma cells, which had been grown and expanded from vehicle- or warfarin-treated mice in medium (α-MEM medium supplemented with 20% fetal bovine serum, 1% penicillin/streptomycin, 1% L-Glutamine) containing vehicle or warfarin (2 μM). Conditioned medium was harvested from stroma from 5 mice grown in the above medium containing vehicle or warfarin for 7 days. Consequently, 100,000 Lin− cells were grown for 2-3 days in the conditioned medium and analyzed for cell counts by flow cytometry. Where indicated, the conditioned medium was concentrated using Microsep Advance Centrifugal Devices 30K Omega (Pall Life Sciences, Portsmouth, UK).
For all coculture assays hematopoietic and stroma cells were derived from the same mouse strain (C57/B16). Stroma cells were used after a maximum of two passages and when they were 70-80% confluent. Stroma cells were derived by crushing bones from mice, plating them in α-MEM medium containing 20% fetal calf serum, penicillin/strptomycin and by removing non-adherent hematopoietic cells the following day, as described (Mukherjee et al., 2008).

HSC = experiment: Competitive, serial and limiting dilution transplantation assays of whole bone marrow; format: in vivo, mice
Procedure: (§1) SJL (CD45.1) donor mice were treated with vehicle or warfarin, euthanized and long bones were flushed, followed by RBC lysis (Life Technologies, Darmstadt, Germany). For competitive transplantation 2×10^6 total BM cells from SJL mice were co-transplanted with 1×10^6 CD45.2+ BM competitor cells into lethally irradiated (900 cGy) C57BL/6N (CD45.2+) recipient mice. For serial transplantation 2×10^6 total CD45.1+ BM cells were transplanted into lethally irradiated C57BL/6N recipient mice. Cell engraftment and chimerism were assessed by flow cytometry of peripheral blood leukocytes for CD45.1 and CD45.2 after 4, 8, 12 and 16 weeks post transplantation. In the limiting dilution experiment we treated primary CD45.1+ donor mice with vehicle or warfarin for 14 days and, consequently, transplanted 5×10^5, 12.5×10^4, 6×10^4 and 1.5×10^4 pooled BM cells into 5 CD45.2+ recipients per group adding 5×10^5 CD45.2+ supporter cells. In indicated experiments we transplanted 5,000 or 10,000 sorted CD45.1+ LKS cells from mice treated with vehicle or warfarin plus 1×10^6 CD45.2+ total BM supporter cells into CD45.2+ recipient mice.
Differences in survival were assessed by Kaplan-Meier non-parametric estimates (Log-rank test) and between groups by student's t-test. The data were presented as mean±s.d. We used L-Calc software (Stemcell Technologies, Vancouver, Canada) to calculate HSC frequency by Poisson statistics. P values≤0.05 were accepted as significant.

LKS and LKS SLAM cells = experiment: G-CSF-mediated mobilization; format: in vivo; details: warfarin-treated mice
Procedure: In the mobilization experiments vehicle- or warfarin-treated C57/B16 mice were treated with 200 μg/kg G-CSF daily for 4 days, sacrificed on day 5 and peripheral blood analyzed for LKS and LKS SLAM cells by flow cytometry.

[2] = system: bone marrow Lin− and LKS cells; experiment: Apoptosis, cell cycle, pAKT and macrophages in bone marrow of warfarin-treated mice; format: in vivo
Procedure: 0.5 mg/kg/d or 0.05 mg/kg/d of warfarin, resuspended in phosphate-buffered saline was administered to mice via subcutaneously implanted osmotic minipumps (ALZET minipumps, Cupertino, CA). The osmotic minipumps were changed after 14 days (if the experiment went beyond 14 days of treatment). Sham operated (skin incision and suture) mice served as controls. Warfarin treatment continued for 10-14 days. In the xenotransplantation experiments the mice were treated with warfarin via the drinking water (or normal drinking water) at a dose of 0.72 mg/100 ml for a total of 3 days a week (Pfeilschifter et al., 2011).
For cell cycle analysis cells were permeabilized and fixed with the cytoperm/cytofix kit (BD Biosciences, San Jose, CA), followed by staining with an antibody to Ki67-PE (Biolegend, San Diego, CA) overnight at 4 C. Consequently, cells were washed and resuspended in PBS with DAPI (1 ng/ml). For detection of apoptosis cells were first stained for surface markers, washed with Annexin V buffer (Life Technologies, Darmstadt, Germany), stained with Annexin V-PE (Life Technologies, Darmstadt, Germany), washed with Annexin V binding buffer, resuspended in PBS with DAPI and analyzed.
The PE-labelled anti-pAKT antibody (Cell signaling, #5315, Danvers, MA) was used for intracellular flow cytometry after fixation and permeabilization of the cells.

CD45.1+ LKS cells = experiment: Transplantation of sorted LKS or Lin− cells from warfarin-treated mice into untreated recipients; format: in vivo
Procedure: as §1

HSPC = experiment: Methylcellulose colony assay of BM cells from treated mice; format: cell-based; details: from warfarin-treated vs control mice, P=0.02
Excerpt: For the methylcellulose colony assays, we plated 10,000 total BM cells from vehicle- or warfarin-treated mice in methylcellulose (M3434, Stem Cell Technologies, Vancouver, Canada). We scored colonies after 10 days.

Lin− and LKS cells = experiment: Homing assay to a warfarin-treated BMM; format: in vivo, mice; details: 18 hours after transplantation
Procedure: In the homing assay, we intravenously transplanted 9×10^6 Actin DsRed+ whole BM cells into C57BL/6N mice treated with vehicle or warfarin for 14 days. 18 hours later, we analyzed BM and spleen cells of recipient mice for the presence of DsRed+ LKS cells.

stroma cells = experiment: Focused gene expression analysis of stroma cells; format: cell-based, mice; details: warfarin- compared to vehicle-treated stroma cells
Actin DsRed+ Lin− cells = experiment: Intrafemoral cotransplantation of treated murine stroma cells with untreated Lin− cells; format: in vivo, mice; details: cotransplanted with warfarin- vs vehicle-treated stroma
Procedure: For the intrafemoral co-transplantation experiments 0.8×10^5 human CD34+ cells or 1×10^5 Lin− cells from Actin-DsRed reporter mice were mixed with 5×10^5 human or murine stroma cells which had been expanded in vitro and pretreated with vehicle or 2 μM warfarin for 14 days. The human stromal cells had been obtained via flushing of discarded bones from the orthopedic operating room, as approved of by the local ethics committee.

Structure (SMILES): CC(=O)CC(c1ccccc1)c1c(O)c2ccccc2oc1=O (stereo not shown) [warfarin]
- number of pAKT+ Lin− cells (Lin− cells; previously warfarin-exposed Lin− cells on untreated stroma, P=0.02): increased
- number of hematopoietic cells (Lin− cells; warfarin-treated Lin− cells on untreated compared to warfarin-treated stroma, P=0.009): increased number
- percentage of Lin− cells in the S/G2/M phases (Lin− cells; warfarin-treated Lin− cells on untreated compared to warfarin-treated stroma, P=0.02): increase
- annexin V+ dead hematopoietic cells in coculture with stroma cells ([1]; in the presence of warfarin vs vehicle, P=0.04): modest increase
- number of cobblestone-forming areas ([1]; untreated Lin− cells on previously warfarin-treated stroma, P=0.03): significantly decreased
- function of whole bone marrow cells in serial transplantation (HSC; P=0.004 after tertiary transplantation): impaired function
- function of whole bone marrow cells in competitive transplantation (HSC; P=0.04 after 16 weeks): impaired function
- reduction of functional HSC in limiting dilution assay (HSC; warfarin-treated vs control mice, P=0.0006, L-Calc): 7.6 fold
- G-CSF-mediated mobilization of LKS SLAM cells into peripheral blood (LKS and LKS SLAM cells; P=0.026): impaired
- G-CSF-mediated mobilization of LKS cells into peripheral blood (LKS and LKS SLAM cells; P=0.042): impaired
- annexin V+ DAPI+ dead LKS cells in bone marrow ([2]; after 6 weeks, P=0.03): modest increase
- annexin V+ DAPI+ dead Lin− cells in bone marrow ([2]; after two weeks, P=0.038): modest increase
- macrophages in the bone marrow of primary mice ([2]; warfarin vs controls): not reduced
- percentage of LKS cells in the Go phase of the cell cycle ([2]; warfarin vs vehicle, P=0.005): significantly increased
- pAKT+ Lin− cells in the bone marrow ([2]; warfarin-treated vs control mice, P=0.04): significant reduction
- percentage of Lin− cells in the S/G2/M phases after transplantation into an untreated BMM (CD45.1+ LKS cells; Lin− cells from a warfarin-treated BMM, P=0.04): increase
- percentage of CD45.1+ donor cells in peripheral blood of recipients (CD45.1+ LKS cells; equal numbers of LKS cells from warfarin-treated donors, one month after transplantation, P=0.03): higher percentage
- reconstitution by warfarin-treated LKS cells (CD45.1+ LKS cells; higher number of transplanted LKS cells, 16 weeks post transplantation): lower than in the case of control LKS cells
- colony-forming ability of HSPC (HSPC): significantly impaired
- homing of Lin− and LKS cells to a warfarin-treated BMM (Lin− and LKS cells): not compromised
- expression of C-X-C motif chemokine 12 (CxCl12) (stroma cells): trend towards increased expression
- expression of osteopontin, Runx 2, Ccl3, Angpt1, Igf1, Notch1 and Wnt7b (stroma cells): significant decreases
- expression of stem cell factor (SCF; Kitl) (stroma cells): unchanged
- engraftment of donor-derived myeloid cells (Actin DsRed+ Lin− cells; P=0.023): decreased engraftment
- engraftment of total donor bone marrow (Actin DsRed+ Lin− cells; P=0.025): decreased engraftment
